The text below walks through data of PubChem BioAssay (NCI).

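Values below derive from 48-hour exposures of cells grown in 96-well plates, with endpoints linearly interpolated between the two concentrations bracketing the appropriate inhibition level. At the GI50, growth is halved. The concentration for full growth arrest is given as TGI.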

Test systems include SNB-19 CNS; SW-620 colon; HOP-62 NSCLC; DLD-1 colon; CCRF-CEM leukemia; NCI-H226 lung; ACHN renal; HOP-92 NSCLC; MDA-MB-435.
Assay in all cases: growth of human tumour cells (NCI), 48 h

Take `CN(C)CCn1c2ccccc2c2nc3cc4ccccc4cc3nc21`: the TGI with SNB-19 CNS was 27.7 µM; with SW-620 colon, 17.4 µM; with HOP-62 NSCLC, 20.1 µM; with DLD-1 colon, 16.5 µM; in the experiment on CCRF-CEM leukemia it was 14.7 µM; in the experiment with NCI-H226 lung, 34.6 µM. The molecule also gave a TGI in the experiment with ACHN renal of 11.1 µM.
On to `CN1CCN(c2ccc3nc(-c4cc(C(C)(C)C)c(O)c(C(C)(C)C)c4)[nH]c3c2)CC1`, for which the GI50 in the experiment with SNB-19 CNS was 3.29 µM; in the experiment with SW-620 colon it was 2.33 µM; in the experiment on HOP-92 NSCLC, 1.82 µM; in the experiment with HOP-62 NSCLC, 2.29 µM; in the experiment with CCRF-CEM leukemia it was 2.22 µM; with NCI-H226 lung, 14.7 µM. Further, the GI50 in the experiment with MDA-MB-435 was 1.73 µM; with ACHN renal, 3.06 µM. The TGI with SNB-19 CNS amounted to 12.4 µM; in the experiment on SW-620 colon it was 4.06 µM; in the experiment with HOP-92 NSCLC, 6.4 µM; in the experiment on HOP-62 NSCLC it was 5 µM; in the experiment on CCRF-CEM leukemia, 5.83 µM; with NCI-H226 lung, 32.4 µM. The values for the TGI in the experiment on MDA-MB-435 and in the experiment on ACHN renal were 3.16 µM and 8.62 µM, respectively.
For the molecule `CN1C(=O)CNC(=O)[C@H](NC(=O)c2nc3ccccc3cc2O)CSSC[C@H]1C(=O)NCCc1nc2ccccc2cc1O`, the GI50 with SNB-19 CNS is 33.5 µM; in the experiment with SW-620 colon, 5.65 µM; in the experiment on HOP-92 NSCLC, over 100 µM; in the experiment on HOP-62 NSCLC it was 17.6 µM; in the experiment on CCRF-CEM leukemia, 3.25 µM; with NCI-H226 lung it was 17.3 µM. Further, the GI50 in the experiment with MDA-MB-435 is 2.5 µM; with ACHN renal, 15.3 µM. In addition, the TGI in the experiment with SNB-19 CNS was over 100 µM; with SW-620 colon, 35.3 µM; with HOP-92 NSCLC, over 100 µM; with HOP-62 NSCLC, 53.4 µM; in the experiment with CCRF-CEM leukemia, over 52.7 µM; in the experiment on NCI-H226 lung it was 65.2 µM. Further, the TGI in the experiment with MDA-MB-435 came out at 35.8 µM; with ACHN renal, 38.7 µM.
Regarding `CS(=O)(=O)CCNCc1ccc(-c2ccc3ncnc(Nc4ccc(OCc5cccc(C(F)(F)F)c5)cc4)c3c2)o1`, the GI50 was 11.3 µM with SNB-19 CNS; 5.2 µM with SW-620 colon; 2.6 µM with HOP-92 NSCLC; 6.53 µM with HOP-62 NSCLC; 6.14 µM in the experiment on CCRF-CEM leukemia; over 16.3 µM in the experiment with NCI-H226 lung. Moreover, the GI50 in the experiment on MDA-MB-435 was 4.71 µM; with ACHN renal, 7.38 µM. For the same molecule, the TGI was over 25 µM with SNB-19 CNS; 10.1 µM in the experiment on SW-620 colon; 7.81 µM in the experiment on HOP-92 NSCLC; 16.6 µM in the experiment on HOP-62 NSCLC; over 25 µM in the experiment with CCRF-CEM leukemia; over 25 µM with NCI-H226 lung. The TGI is 10.7 µM in the experiment with MDA-MB-435 and over 25 µM with ACHN renal.
`CC(=O)O[C@@H]1CO[C@H]2O[C@H]3[C@@H](C(C=O)=C[C@H](O)[C@@H]4C5=C(C(C)C)CC[C@]5(C)CC[C@@]34C)[C@@]2(O)C1=O`: the TGI was determined as 1.97 µM with SNB-19 CNS; 0.213 µM with SW-620 colon; 0.554 µM with HOP-92 NSCLC; 1.82 µM in the experiment with HOP-62 NSCLC; 0.418 µM in the experiment with CCRF-CEM leukemia; 1.02 µM in the experiment with NCI-H226 lung. For the same molecule, the figures for the TGI in the experiment on MDA-MB-435 and with ACHN renal were 0.393 µM and 0.281 µM, respectively.
For `Nc1ccc2c(c1)C(=O)c1c(F)cccc1-2`, the TGI with SNB-19 CNS was over 100 µM; in the experiment with SW-620 colon it was over 100 µM; in the experiment on HOP-92 NSCLC it was 93.3 µM; in the experiment with HOP-62 NSCLC, over 100 µM; with CCRF-CEM leukemia it was over 100 µM; with NCI-H226 lung, over 100 µM. Further, the TGI in the experiment on MDA-MB-435 and in the experiment on ACHN renal was over 100 µM throughout.
On to `CCCCCCCCCCCCCCCc1cc(O)ccc1N`, for which the GI50 with SNB-19 CNS is over 100 µM; in the experiment with SW-620 colon it was over 100 µM; in the experiment with HOP-92 NSCLC, 12.4 µM; in the experiment with HOP-62 NSCLC it was over 100 µM; with CCRF-CEM leukemia it was 0.0518 µM; in the experiment on NCI-H226 lung it was 8.38 µM. In addition, the GI50 in the experiment on MDA-MB-435 and with ACHN renal was over 100 µM each time. Besides, the TGI in the experiment with SNB-19 CNS is over 100 µM; with SW-620 colon, over 100 µM; with HOP-92 NSCLC, 93.7 µM; in the experiment with HOP-62 NSCLC, over 100 µM; in the experiment with NCI-H226 lung it was over 49.2 µM; with MDA-MB-435, over 100 µM. For the same molecule, the TGI in the experiment on ACHN renal is over 100 µM.
As for `CC(ONC(=O)c1cc(C(F)(F)F)cc(C(F)(F)F)c1)C(=O)Nc1ccc(Cl)cc1` (stereo not given), the GI50 in the experiment on SNB-19 CNS is 5.64 µM; in the experiment with SW-620 colon, 5.64 µM; in the experiment on HOP-92 NSCLC it was 2.77 µM; with HOP-62 NSCLC, 8.45 µM; in the experiment with CCRF-CEM leukemia, 1.09 µM; in the experiment on NCI-H226 lung it was 7.31 µM. Besides, the GI50 in the experiment with MDA-MB-435 was 4.39 µM; in the experiment on ACHN renal, 4.55 µM. In addition, the TGI with SNB-19 CNS was over 100 µM; in the experiment with SW-620 colon, 23.7 µM; in the experiment with HOP-92 NSCLC it was 7.21 µM; in the experiment with HOP-62 NSCLC, 24.6 µM; in the experiment on CCRF-CEM leukemia, 5.38 µM; in the experiment with NCI-H226 lung, over 64.4 µM. Also, the figures for the TGI with MDA-MB-435 and in the experiment with ACHN renal were 29.7 µM and 50.6 µM, respectively.
Consider `CC1(C)N=C(N)N=C(N)N1c1ccc(F)c(C(F)(F)F)c1`, for which the GI50 in the experiment with SNB-19 CNS was 4.47 µM; in the experiment with SW-620 colon it was 0.233 µM; in the experiment on HOP-92 NSCLC it was 12.4 µM; with CCRF-CEM leukemia it was 0.532 µM; with NCI-H226 lung it was over 27.6 µM; with MDA-MB-435, 0.239 µM. Besides, the GI50 in the experiment on ACHN renal is 2.28 µM. Moreover, the TGI in the experiment on SNB-19 CNS, in the experiment with SW-620 colon, in the experiment with HOP-92 NSCLC, in the experiment with HOP-62 NSCLC, in the experiment with CCRF-CEM leukemia and with NCI-H226 lung was over 100 µM throughout. The TGI in the experiment with MDA-MB-435 and with ACHN renal was over 100 µM throughout.
With `CC(C)=CCc1c(O)cc(/C=C/c2cc(O)c3c(c2)C[C@@H]2C(C)(C)[C@H](O)[C@H](O)C[C@@]2(C)O3)cc1O`, the GI50 is 1.46 µM with SNB-19 CNS; 0.11 µM with SW-620 colon; 0.0104 µM in the experiment on HOP-92 NSCLC; 1.38 µM with HOP-62 NSCLC; under 0.001 µM in the experiment on CCRF-CEM leukemia; 1.99 µM in the experiment with NCI-H226 lung. The results for the GI50 in the experiment with MDA-MB-435 and in the experiment on ACHN renal were 0.662 µM and 0.526 µM, respectively. Further, the TGI in the experiment on SNB-19 CNS was over 10 µM; with SW-620 colon, 1.88 µM; with HOP-92 NSCLC it was 2.6 µM; with HOP-62 NSCLC, over 7.95 µM; in the experiment on CCRF-CEM leukemia it was 2 µM; with NCI-H226 lung, over 10 µM. Besides, the TGI in the experiment on MDA-MB-435 is 4.22 µM; in the experiment on ACHN renal, over 8.74 µM.
As for `O=c1c2ccc3cccc4c(=O)cc(c5ccccc15)-c2c34`, the TGI in the experiment on SNB-19 CNS, in the experiment with SW-620 colon, in the experiment with HOP-62 NSCLC, in the experiment on DLD-1 colon, in the experiment with CCRF-CEM leukemia and in the experiment on NCI-H226 lung was over 100 µM throughout. The TGI in the experiment with ACHN renal was over 100 µM.
